Values joined by “and” are separate entries in the source; they are usually repeats but may differ in a detail not shown here. Equal entries are not always repeated. Inconclusive results and toxic doses are left out. How the source made its calls: active means survival T/C of 150% or more; inactive means T/C below 125% in these data.
Tested on: BDF1 mice, B16 melanoma ip, median survival T/C
Test: NCI In Vivo Anticancer Drug Screen. Data for tumor model B16 Melanoma (intraperitoneal) in B6D2F1 (BDF1) mice
Details: endpoint: median survival time, higher = longer survival
Outline: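 Tumor-bearing mice received test compound or vehicle. Survival or tumor size was then measured in both groups. The treated-group figure was divided by the control-group figure.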

[1] = dose: 50.0 mg/kg/injection, schedule: Q04DX003 (ip), vehicle: saline with Tween-80
[2] = dose: 100.0 mg/kg/injection, schedule: Q04DX003 (ip), vehicle: saline with Tween-80
[3] = dose: 6.25 mg/kg/injection, schedule: Q01DX009 (ip), vehicle: Klucel (hydroxypropylcellulose) (HPC)
[4] = dose: 12.5 mg/kg/injection, schedule: Q01DX009 (ip), vehicle: Klucel (hydroxypropylcellulose) (HPC)
[5] = dose: 200.0 mg/kg/injection, schedule: Q04DX003 (ip), vehicle: saline with Tween-80
[6] = dose: 100.0 mg/kg/injection, schedule: Q01DX009 (ip), vehicle: saline with Tween-80
[7] = dose: 200.0 mg/kg/injection, schedule: Q01DX009 (ip), vehicle: saline with Tween-80
[8] = dose: 400.0 mg/kg/injection, schedule: Q01DX009 (ip), vehicle: saline with Tween-80
[9] = dose: 25.0 mg/kg/injection, schedule: Q01DX009 (ip), vehicle: saline with Tween-80
[10] = dose: 50.0 mg/kg/injection, schedule: Q01DX009 (ip), vehicle: saline with Tween-80
[11] = dose: 50.0 mg/kg/injection, schedule: Q01DX009 (ip), vehicle: Klucel (hydroxypropylcellulose) (HPC)
[12] = dose: 100.0 mg/kg/injection, schedule: Q01DX009 (ip), vehicle: Klucel (hydroxypropylcellulose) (HPC)
[13] = dose: 200.0 mg/kg/injection, schedule: Q01DX009 (ip), vehicle: Klucel (hydroxypropylcellulose) (HPC)
[14] = dose: 400.0 mg/kg/injection, schedule: Q01DX009 (ip), vehicle: Klucel (hydroxypropylcellulose) (HPC)
[15] = dose: 25.0 mg/kg/injection, schedule: Q01DX009 (ip), vehicle: Klucel (hydroxypropylcellulose) (HPC)

Measured: T/C

C/C=C(/C#N)c1ccccc1
inactive: [1] 100 % of control | [2] 97 % of control

NNC(=O)c1ccccn1
inactive: dose: 25.0 mg/kg/injection, schedule: Q01DX009 (ip), vehicle: water 106 % of control | dose: 50.0 mg/kg/injection, schedule: Q01DX009 (ip), vehicle: water 113 % of control

NCCCC(N)(C(=O)O)C(F)F (centres undefined)
inactive: dose: 50.0 mg/kg/injection, schedule: Q01DX009 (ip), vehicle: distilled water + alcohol 94 % of control | dose: 100.0 mg/kg/injection, schedule: Q01DX009 (ip), vehicle: distilled water + alcohol 101 % of control | dose: 200.0 mg/kg/injection, schedule: Q01DX009 (ip), vehicle: distilled water + alcohol 97 % of control | dose: 400.0 mg/kg/injection, schedule: Q01DX009 (ip), vehicle: distilled water + alcohol 100 % of control | dose: 800.0 mg/kg/injection, schedule: Q01DX009 (ip), vehicle: distilled water + alcohol 110 % of control

O=Nc1ccc2cc(O)ccc2c1O
inactive: dose: 3.12 mg/kg/injection, schedule: Q04DX003 (ip), vehicle: Klucel (hydroxypropylcellulose) (HPC) 97 % of control | [3] 95 % of control | dose: 6.25 mg/kg/injection, schedule: Q04DX003 (ip), vehicle: Klucel (hydroxypropylcellulose) (HPC) 102 % of control | [4] 109 % of control | dose: 12.5 mg/kg/injection, schedule: Q04DX003 (ip), vehicle: Klucel (hydroxypropylcellulose) (HPC) 100 % of control

Cc1ccc(C(=O)/C=C/c2ccccc2O)cc1
inactive: dose: 37.5 mg/kg/injection, schedule: Q01DX009 (ip), vehicle: Klucel (hydroxypropylcellulose) (HPC) 103 % of control | dose: 75.0 mg/kg/injection, schedule: Q01DX009 (ip), vehicle: Klucel (hydroxypropylcellulose) (HPC) 90 % of control | dose: 150.0 mg/kg/injection, schedule: Q01DX009 (ip), vehicle: Klucel (hydroxypropylcellulose) (HPC) 98 % of control | dose: 300.0 mg/kg/injection, schedule: Q01DX009 (ip), vehicle: Klucel (hydroxypropylcellulose) (HPC) 88 % of control

CCOC(=O)NC1CCC1NC(=O)OCC (centres undefined)
inactive: [2] 92 % of control | [5] 95 % of control

Cc1c(N)nc(C(CC(N)=O)NCC(N)C(N)=O)nc1C(=O)NC(C(=O)NC(C)C(O)C(C)C(=O)NC(C(=O)NCCc1nc(-c2nc(C(=O)NCCC[S+](C)C)cs2)cs1)C(C)O)C(OC1OC(CO)C(O)C(O)C1OC1OC(CO)C(O)C(OC(N)=O)C1O)c1cnc[nH]1 (centres undefined)
inactive: dose: 3.9 mg/kg/injection, schedule: Q01DX009 (ip), vehicle: saline 107 % of control | dose: 7.8 mg/kg/injection, schedule: Q01DX009 (ip), vehicle: saline 105 % of control | dose: 15.6 mg/kg/injection, schedule: Q01DX009 (ip), vehicle: saline 99 % of control

c1ccc([As+](c2ccccc2)(c2ccccc2)c2ccccc2)cc1
inactive: dose: 1.87 mg/kg/injection, schedule: Q01DX009 (ip), vehicle: Klucel (hydroxypropylcellulose) (HPC) 122 % of control | dose: 3.75 mg/kg/injection, schedule: Q01DX009 (ip), vehicle: Klucel (hydroxypropylcellulose) (HPC) 110 % of control

CC(O)c1cc(Cl)ccc1Cl (centres undefined)
inactive: [6] 93 % of control | [2] 107 % of control | [7] 115 % of control | [5] 107 % of control | [8] 103 % of control

O=CNc1cc2ccccc2c2ccc3ccccc3c12
inactive: dose: 50.0 mg/kg/injection, schedule: Q04DX003 (ip), vehicle: Klucel (hydroxypropylcellulose) (HPC) 104 % of control | dose: 100.0 mg/kg/injection, schedule: Q04DX003 (ip), vehicle: Klucel (hydroxypropylcellulose) (HPC) 100 % of control

CCc1cc(C)cc(OC(=O)Nc2cccc(Cl)c2)c1
inactive: [6] 90 % of control | [7] 92 % of control | [8] 86 % of control

CS(=O)(=O)c1cnc2ccccc2n1
inactive: [9] 94 % of control | [10] 86 % of control

CC(C)C1=CC2=CCC3C(C)(C(N)=O)CCCC3(C)C2CC1CC#N (centres undefined)
inactive: [2] 102 % of control | dose: 400.0 mg/kg/injection, schedule: Q04DX003 (ip), vehicle: saline with Tween-80 88 % of control

CCCCCCCCCCCCCCCC(=O)N(C/C=C/CN(C(=O)CCCCCCCCCCCCCCC)C(C)CCCN(CC)CC)C(C)CCCN(CC)CC (centres undefined)
inactive: dose: 3.13 mg/kg/injection, schedule: Q01DX009 (ip), vehicle: other 98 % of control | dose: 6.25 mg/kg/injection, schedule: Q01DX009 (ip), vehicle: other 99 % of control | dose: 12.5 mg/kg/injection, schedule: Q01DX009 (ip), vehicle: other 93 % of control

COc1ccccc1Oc1ccc(N=Cc2ccc(C)cc2)cc1
inactive: [11] 102 % of control | [12] 86 % of control and 102 % of control | [13] 100 % of control and 111 % of control | [14] 86 % of control

CCOC(=O)CC(SP(=S)(OC)OC)C(=O)OCC (centres undefined)
inactive: [9] 94 % of control and 107 % of control | dose: 25.0 mg/kg/injection, schedule: Q01DX009 (ip), vehicle: saline 106 % of control | [10] 96 % of control and 97 % of control | dose: 50.0 mg/kg/injection, schedule: Q01DX009 (ip), vehicle: saline 95 % of control | [6] 91 % of control and 98 % of control | dose: 100.0 mg/kg/injection, schedule: Q01DX009 (ip), vehicle: saline 101 % of control | [7] 88 % of control and 96 % of control | dose: 200.0 mg/kg/injection, schedule: Q01DX009 (ip), vehicle: saline 101 % of control

CCCCNC(C)(C)C(S)c1ccc(Cl)cc1 (centres undefined)
inactive: [3] 102 % of control | [4] 97 % of control | [15] 89 % of control

C[C@@H]1CC2=CC(=O)C=C[C@]2(C)[C@H]2CC[C@@]3(C)[C@@H](CC[C@]3(C)O)[C@H]12
inactive: [3] 107 % of control | [4] 103 % of control | [15] 102 % of control | [11] 95 % of control | [12] 93 % of control

COC(=O)Nc1cccc(-c2nc3ccc(NC(=O)OC)cc3c(=O)n2-c2ccccc2)c1
inactive: dose: 8.0 mg/kg/injection, schedule: Q01DX009 (ip), vehicle: Klucel (hydroxypropylcellulose) (HPC) 107 % of control | dose: 8.0 mg/kg/injection, schedule: Q01DX009 (ip), vehicle: saline 112 % of control | dose: 16.0 mg/kg/injection, schedule: Q01DX009 (ip), vehicle: Klucel (hydroxypropylcellulose) (HPC) 107 % of control | dose: 50.0 mg/kg/injection, schedule: Q04DX005 (ip), vehicle: other 112 % of control | dose: 50.0 mg/kg/injection, schedule: Q04DX006 (ip), vehicle: saline 117 % of control | dose: 64.0 mg/kg/injection, schedule: Q01DX009 (ip), vehicle: saline 123 % of control | dose: 100.0 mg/kg/injection, schedule: Q04DX005 (ip), vehicle: other 120 % of control | dose: 100.0 mg/kg/injection, schedule: Q04DX005 (oral), vehicle: saline 99 % of control | dose: 200.0 mg/kg/injection, schedule: Q04DX005 (oral), vehicle: saline 97 % of control | dose: 400.0 mg/kg/injection, schedule: Q04DX005 (oral), vehicle: saline 114 % of control

COC(=O)C1C(O)C(C)C(O)C(C)C=C(C)C2=C3C(=C(C)C(=O)c4c(O)c(c(C)c(OC(C)=O)c43)NC(=O)C(C)=C/C=C\C(C)C(O)C(C)C1O)OCO2 (centres undefined)
inactive: [3] 97 % of control | [4] 94 % of control | [15] 88 % of control | dose: 25.0 mg/kg/injection, schedule: Q01DX009 (ip), vehicle: carboxymethylcellulose (CMC) 112 % of control | dose: 50.0 mg/kg/injection, schedule: Q01DX009 (ip), vehicle: carboxymethylcellulose (CMC) 112 % of control | [12] 89 % of control

Cc1cc(NC(=O)NCc2ccc(N3C(N)=NC(N)=NC3(C)C)cc2)ccc1S(=O)(=O)F
inactive: dose: 25.0 mg/kg/injection, schedule: Q04DX003 (ip), vehicle: saline 97 % of control | dose: 50.0 mg/kg/injection, schedule: Q04DX003 (ip), vehicle: saline 109 % of control | dose: 400.0 mg/kg/injection, schedule: Q04DX003 (ip), vehicle: saline 122 % of control

O=c1[nH]c2ccc(Br)cc2c(=O)o1
inactive: [9] 91 % of control | [10] 91 % of control | [6] 86 % of control and 88 % of control | [7] 86 % of control

CCOC(=O)C(C)Oc1ccccc1[N+](=O)[O-] (centres undefined)
inactive: [12] 103 % of control | [13] 96 % of control | [14] 103 % of control

O=C(O)CC(Br)C(=O)c1ccccc1 (centres undefined)
inactive: dose: 12.5 mg/kg/injection, schedule: Q04DX003 (ip), vehicle: saline with Tween-80 93 % of control | dose: 25.0 mg/kg/injection, schedule: Q04DX003 (ip), vehicle: saline with Tween-80 86 % of control | [1] 88 % of control

Cc1cc2c(cc1C)NC(=O)C(C)CN2 (centres undefined)
inactive: [12] 90 % of control | [13] 88 % of control | [14] 87 % of control

From PubChem BioAssay AID192 (DTP/NCI, 2004)
